“Also recorded” adds a separate entry of the source. Where two headings read alike, the source gives them in different places.
What was measured:
[1] = biological target: T1, nano-luciferase enzyme (Oplophorus gracilirostris, UniProt Q9GV45, A31E/A60N/A81I/F95D/I117V/K70R/L54V/L99Q/M102K/N193R/P142E/Q151K/Q38R/Q45L/V71I/Y165I); assay: Direct inhibition of nanoluciferase enzyme in conditioned media; assay type: biochemical; details: conditioned media containing nano-luciferase, indicated concentrations
T1 construct: heterologous secretion signal (sec-Nluc) (N); expressed in transfected cells; probably the TEAD-NLUC HeLa reporter cells
T1 sequence (Q9GV45 other isoform, or with tags, fused parts or gaps with the stated changes): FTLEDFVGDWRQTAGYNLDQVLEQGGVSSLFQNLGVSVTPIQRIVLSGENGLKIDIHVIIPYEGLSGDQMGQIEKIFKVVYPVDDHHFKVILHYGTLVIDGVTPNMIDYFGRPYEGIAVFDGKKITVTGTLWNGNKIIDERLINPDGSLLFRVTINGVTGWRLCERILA
Procedure: Cell conditioned media containing nano-luciferase enzyme was incubated with the indicated
concentrations of CPD3 (A) or CPD3.1 (B) and nano-luciferase activity assayed.
(§1) (1 picture or pasted object on this page, not shown here)

[2] = test system: CTGF promoter; assay: CTGF-luciferase reporter in RaVSMCs; assay type: cell-based, rat
Description: Activation of TEAD transcription factors in response to YAP binding induces the expression of many genes that encode proteins known to be involved in promoting cell proliferation and migration (see Supplement Figure 14). The best characterized TEAD target genes associated with the promotion of cell proliferation and migration are CCN1 and CTGF.[39],[59],[60] […] We therefore tested whether CPD3 inhibited the promoter activity of known TEAD target genes, CCN1 and CTGF, in the HeLa transformed cell line and primary rat VSMCs (RaVSMCs). Cells were transfected with plasmids expressing bioluminescent firefly luciferase reporter genes under the control of either the CCN1 or CTGF promoter regions. […] As both CCN1 and CTGF are classical TEAD target genes, this is consistent with the inhibition of TEAD activity by CPD3.
Figure 9 Compound 3.1 inhibits TEAD target gene expression, cell proliferation, and cell migration in RaVSMCs. […] Total RNA was analyzed for mRNA levels of TEAD-target genes (D) or constitutive housekeeping genes (E) by qRT-PCR. […] Total cell lysates were analyzed for CCN1 protein expression by Western blotting (F). […] RaVSMCs (I) or HuVSMC (J) were treated with indicated concentrations of compound 3.1 and cell migration quantified using IncuCyte real time migration assay (n = 4). […]

[3] = test system: housekeeping genes PGK1, TBP, GAPDH, 36B4; assay: qRT-PCR of TEAD-independent housekeeping gene mRNA in RaVSMCs; assay type: cell-based, rat
Procedure: Figure 9 Compound 3.1 inhibits TEAD target gene expression, cell proliferation, and cell migration in RaVSMCs. RaVSMCs stably transduced with TEAD-NLUC (A) or transiently transfected with CCN1-LUC or CTGF-LUC were treated with the indicated concentrations of compound 3.1 for 6 hr. Cell conditioned media (A) or cell lysates (B−C) were assayed for nanoluciferase or fire-fly luciferase activity, respectively. VSMC were treated with 60 μM compound 3.1 for 6 h (n = 3). Total RNA was analyzed for mRNA levels of TEAD-target genes (D) or constitutive housekeeping genes (E) by qRT-PCR. VSMC were treated with indicated concentrations of compound 3.1 for 16 hr (n = 4). Total cell lysates were analyzed for CCN1 protein expression by Western blotting (F). […] RaVSMCs (I) or HuVSMC (J) were treated with indicated concentrations of compound 3.1 and cell migration quantified using IncuCyte real time migration assay (n = 4).
Quantitative reverse transcription (RT)-PCR: quantification of mRNA was performed by RT-qPCR, as described previously.[39] Total RNA was extracted using Ambion PureLink kits (Thermo Fisher) and reverse-transcribed using QuantiTect RT kit (Qiagen) and random primers. Quantitative PCR was performed using Roche SYBR Green using a Qiagen Roto-GeneRotor-Gene Q PCR machine (20 seconds@95 °C; 20 seconds @62 °C; 20 seconds@72 °C). […]

[4] = test system: TEAD target genes (CCN1, CTGF, PAI1, THBS, MAYDM, MYOC); assay: qRT-PCR of TEAD target gene mRNA in RaVSMCs; assay type: cell-based, rat
Procedure: Figure 9 Compound 3.1 inhibits TEAD target gene expression, cell proliferation, and cell migration in RaVSMCs. RaVSMCs stably transduced with TEAD-NLUC (A) or transiently transfected with CCN1-LUC or CTGF-LUC were treated with the indicated concentrations of compound 3.1 for 6 hr. Cell conditioned media (A) or cell lysates (B−C) were assayed for nanoluciferase or fire-fly luciferase activity, respectively. VSMC were treated with 60 μM compound 3.1 for 6 h (n = 3). Total RNA was analyzed for mRNA levels of TEAD-target genes (D) or constitutive housekeeping genes (E) by qRT-PCR. VSMC were treated with indicated concentrations of compound 3.1 for 16 hr (n = 4). Total cell lysates were analyzed for CCN1 protein expression by Western blotting (F). RaVSMCs (G) or HuVSMC (H) were treated with indicated concentrations of compound 3.1 for 18 h followed by labeling in 10 μM EdU for a further 6 h (n = 4). RaVSMCs (I) or HuVSMC (J) were treated with indicated concentrations of compound 3.1 and cell migration quantified using IncuCyte real time migration assay (n = 4).
Quantitative reverse transcription (RT)-PCR: quantification of mRNA was performed by RT-qPCR, as described previously.[39] Total RNA was extracted using Ambion PureLink kits (Thermo Fisher) and reverse-transcribed using QuantiTect RT kit (Qiagen) and random primers. Quantitative PCR was performed using Roche SYBR Green using a Qiagen Roto-GeneRotor-Gene Q PCR machine (20 seconds@95 °C; 20 seconds @62 °C; 20 seconds@72 °C). Data were normalized to nonstimulated controls. Primer sequences are described in Supplement Table 2.
Supplement Figure 11: Dose repose analysis of CPD3.1 on CCN1, CTGF and THBS
RaVSMC were treated with the indicated doses of CPD3.1 and total RNA analysed for
levels of steady state mRNA of CCN1, CTGF and THBS mRNA using qRT-PCR (n=4).
as §1

[5] = test system: HeLa cells; assay: Live/dead cell viability assay (ethidium homodimer-1) in HeLa cells; assay type: cell-based
Procedure: Cell viability was quantified using the live/dead viability/cytotoxicity assay standard protocol (Invitrogen). Maximum cell death was quantified by incubating cells for 10 min with 0.1% Triton-X, followed by incubation with 0.4 μM ethidium homodimer-1 for an additional 10 min. Fluorescence was measured using a GloMax Discover multiplate reader (Promega).
Supplement Figure 3: Effect of shortlisted compounds on cell viability
(§2) HeLa cells transduced with TEAD-NLUC reporter were treated with indicated compounds at 100 µM for 6 hours (n=3). Cell viability was quantified by staining with 0.4 µM ethidium homodimer-1 and ethidium homodimer-1 uptake quantified by measuring fluorescence at 645 nm using a Glomax Discover plate reader.
as §1
as §2, with “Supplement Figure 6: Effect of CPD3, CPD3.1, CPD3.2 and CPD 3.3 on cell viability HeLa” for “HeLa”, “concentrations of CPD3, CPD3.1, CPD3.2 and CPD 3.3” for “compounds at 100 µM”, “plate” for “plate reader.”

[6] = RaVSMC dose-response, Supplement Figure 11

SMILES	direct inhibitory effect on NLUC enzymatic activity [1]	IC50 ([2]; Rattus norvegicus, 6 hr, read-out: IC50, CTGF-LUC (as printed in Figure 9C)) [µM]	steady-state mRNA levels of housekeeping genes PGK1, TBP, GAPDH, 36B4 ([3]; VSMC, 60 μM, 6 h)	concentration giving inhibition of CCN1 mRNA [4, 6] [µM]	concentration giving inhibition of CTGF mRNA [4, 6] [µM]	concentration giving inhibition of THBS mRNA [4, 6] [µM]	steady-state mRNA levels of TEAD target genes (CCN1, CTGF, PAI1, THBS, MAYDM, MYOC) ([4]; VSMC, 60 μM, 6 h)	effect on cell viability [5]	CTGF-luciferase reporter gene activity ([2]; 6 h, indicated concentrations)	steady-state mRNA level of housekeeping gene 36B4 ([3]; RaVSMCs, Supplement Figure 4)	steady-state mRNA levels of endogenous CCN1 and CTGF genes ([4]; RaVSMCs, Supplement Figure 4)	effect on cell viability ([5]; 100 µM, 6 hours, HeLa TEAD-NLUC cells)	effect on cell viability ([5]; indicated concentrations, 6 hours, HeLa (Supplement Figure 6))
Cc1ccc2c(c1)c1c3n2CCNC3CCC1 (centres unmarked) [CPD3.1]	do not non-specifically inhibit nano-luciferase; also recorded: without having any direct inhibitory effect on NLUC activity	58	unaffected	20	40	10	significantly inhibited	without affecting cell viability					
Cc1ccc2c(c1)c1c3n2CCN(CC(O)CN2CCN(C(=O)c4ccco4)CC2)C3CCC1 (centres unmarked) [CPD3]	do not non-specifically inhibit nano-luciferase; also recorded: did not affect cell viability (Supplement Figure 6) or have any direct inhibitory effect on NLUC enzymatic activity								strong and significant dose-dependent inhibition	but not the TEAD-independent housekeeping gene 36B4	significantly inhibited	without significantly affecting cell viability	did not affect cell viability

— publication PMC6701825, “Antiproliferative and Antimigratory Effects of a Novel YAP–TEAD Interaction Inhibitor Identified Using in Silico Molecular Docking” (Journal of Medicinal Chemistry, 2019)
